This is an account of results in patent publication US10072017B2, “Compounds and methods for the treatment of cystic fibrosis” (Flatley Discovery Lab, LLC, priority 2015, dated 2018).

Molecules are shown by their SMILES.

This assay has as its target T1, CFTR (Homo sapiens, UniProt P13569, DEL508-508).
T1 construct: Primary CF airway epithelial cells were obtained from the UNC Cystic Fibrosis Tissue Procurement and Cell Culture Core; host or cells: primary CF airway epithelial cells
In words: Equivalent current assay in Primary CF airway epithelial cells (NAUC). The note with it: 24 h, normalized to VX809 (3 μM) positive control; for Nauc @ 3 μM: 3 μM test compound; for Nauc @ 10 μM: 10 μM test compound. In kind it is cell-based. The procedure: Primary CF airway epithelial cells were obtained from the UNC Cystic Fibrosis Tissue Procurement and Cell Culture Core. The cells are grown at 37° C. in a Heracell 150i incubator using growth media (BEGM, Fischer). Cells were then transferred to differentiation media (ALI, UNC) for a minimum of 4 weeks on coated Costar snapwells. Two days before the Ussing assay the mucus on the apical surface of the cells was aspirated after incubating with 200 μL of differentiation Media for at least thirty (30) minutes. One day before the Ussing assay test compounds were added to the basolateral surface of the cells at various test concentrations dissolved in DMSO. Duplicate wells were prepared giving a n=3 or n=4 protocol.
Cells were treated for 24 hours with various combinations and concentrations of the test articles, reference standard (3 μM VX809, positive control). Compounds stock solutions were prepared in DMSO and diluted 1/1000 into ALI media to their final assay concentration. Cells were treated with combination solutions (2 mL of each dilution) and incubated at 37° C. for 24 h.
For the equivalent current assay, cells on four Transwell (24-well) plates were treated. Each Transwell plate was filled with 200 μl of HBS on the apical surface and 2 ml on the basolateral surface. Plates were placed horizontally in a heated mount at 37° C., and equilibrated for several minutes. Resting current was measured for 15 min and then blocked by the apical addition of 5 μM benzamil. After 20 min, 10 μM forskolin and 1 μM VX770 were added to both the apical and basolateral side to stimulate CFTR. An increase in chloride current is seen as an upward deflection of the trace. After another 30 min, CFTR-172 (a CFTR inhibitor, 20 μM) and/or bumetanide (20 uM) was added to block CFTR mediated chloride current.
The raw data, current vs. time for the Ussing chamber (sampling interval: 10 s) and voltage vs. time and resistance vs. time for the equivalent current assay (sampling interval: 5 minutes) were transferred to Excel (Microsoft Office Professional, version 14.0.7106.5003) for analysis. CFTR specific current was measured as the average amplitude of the increase in current elicited upon addition forskolin and ending upon addition of the CFTR channel specific blocker CFTR-172. This average is equivalent to the sum of the average forskolin activated and the average VX770-potentiated currents. The average current measured in vehicle (0.1% DMSO) treated cells, Iv, was subtracted from the current for the test article, ITA, or from the corrector reference standard VX809 (3 uM ISTD. For replicate measurements, the average vehicle subtracted response for the test article, was normalized to the average vehicle subtracted inhibitor response of the reference corrector VX809 (3 μM). INSC=(ITA−IV)(ave)/(ISTD−IV)(ave) (Equation 1)
A second endpoint, for the equivalent current assay, evaluated was NAUC, the normalized area under the curve (AUC) measuring the response after addition of forskolin and VX770 to the time point right before the addition of the CFTR inhibitor. The AUC is effectively the average response multiplied by the duration of the response. The AUC of the test article, AUCTA was then corrected by subtracting the average vehicle response, AUCV,ave over the same time range, and normalized as for the inhibitor-sensitive current to the difference of the corrector reference standard VX809 (3 μM VX809r,ave and the vehicle response: NAUCTA=[AUCTA−AUCV,ave]/[AUCVx809r,ave−AUCV,ave] (Equation 2).
The normalized value for DMSO is 0.0 and for VX-809 alone is 1.0. Combinations of compounds with VX-809 that give normalized values greater than 1.0 show activity in the combination assay. A value of 2 means the test compound doubles the effect to VX-809 alone.
Experiments were run with a minimum of n=4 replicates per concentration. […]

T1 sequence (P13569 with tags, fused parts or gaps DEL508-508): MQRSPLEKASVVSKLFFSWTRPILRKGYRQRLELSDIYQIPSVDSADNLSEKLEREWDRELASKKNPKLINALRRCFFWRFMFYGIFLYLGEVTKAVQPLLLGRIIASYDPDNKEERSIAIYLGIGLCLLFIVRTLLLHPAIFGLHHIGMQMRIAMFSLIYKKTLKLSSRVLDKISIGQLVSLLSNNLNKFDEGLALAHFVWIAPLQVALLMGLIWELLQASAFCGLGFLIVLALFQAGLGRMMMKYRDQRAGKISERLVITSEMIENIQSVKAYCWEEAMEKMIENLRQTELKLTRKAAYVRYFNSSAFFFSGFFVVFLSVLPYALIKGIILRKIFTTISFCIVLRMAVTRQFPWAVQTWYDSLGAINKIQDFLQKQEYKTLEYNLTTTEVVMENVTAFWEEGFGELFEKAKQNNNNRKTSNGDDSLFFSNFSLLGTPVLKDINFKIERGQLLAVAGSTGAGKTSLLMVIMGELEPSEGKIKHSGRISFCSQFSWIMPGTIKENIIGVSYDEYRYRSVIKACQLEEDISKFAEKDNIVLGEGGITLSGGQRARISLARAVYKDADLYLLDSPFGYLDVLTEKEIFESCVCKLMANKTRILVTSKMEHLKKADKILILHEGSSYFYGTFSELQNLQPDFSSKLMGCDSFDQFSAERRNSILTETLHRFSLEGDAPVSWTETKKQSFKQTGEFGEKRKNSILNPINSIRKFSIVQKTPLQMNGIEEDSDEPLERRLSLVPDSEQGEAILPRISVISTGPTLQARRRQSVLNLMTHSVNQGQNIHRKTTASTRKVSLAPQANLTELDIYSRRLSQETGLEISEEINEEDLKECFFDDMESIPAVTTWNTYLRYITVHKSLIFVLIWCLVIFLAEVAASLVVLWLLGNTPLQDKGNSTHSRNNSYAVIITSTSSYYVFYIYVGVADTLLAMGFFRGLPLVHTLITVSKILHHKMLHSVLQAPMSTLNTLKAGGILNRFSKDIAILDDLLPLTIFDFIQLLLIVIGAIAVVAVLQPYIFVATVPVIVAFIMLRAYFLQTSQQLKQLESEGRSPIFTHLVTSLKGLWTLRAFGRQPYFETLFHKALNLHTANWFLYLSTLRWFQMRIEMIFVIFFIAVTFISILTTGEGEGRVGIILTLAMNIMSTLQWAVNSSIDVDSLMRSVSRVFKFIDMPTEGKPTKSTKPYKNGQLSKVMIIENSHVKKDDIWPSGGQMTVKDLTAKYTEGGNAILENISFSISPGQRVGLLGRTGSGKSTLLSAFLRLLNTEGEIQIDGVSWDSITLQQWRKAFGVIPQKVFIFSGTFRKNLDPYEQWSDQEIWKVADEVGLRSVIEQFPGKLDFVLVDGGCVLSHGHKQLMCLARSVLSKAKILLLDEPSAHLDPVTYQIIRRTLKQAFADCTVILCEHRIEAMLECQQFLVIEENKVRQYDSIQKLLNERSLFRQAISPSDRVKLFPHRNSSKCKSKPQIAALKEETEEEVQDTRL

Take `O=C1[C@H]2[C@H]3CCCN3[C@]3(C(=O)Nc4c(Cl)cc(Cl)cc43)[C@H]2C(=O)N1c1cc(Cl)cc(Cl)c1` (single isomer, unassigned) [Example 1]: the “Nauc @ 3 μM” value was “+++ (NAUC “+++” refers to an observed NAUC >170% of positive control)” and the “Nauc @ 10 μM” value was “+++ (NAUC “+++” refers to an observed NAUC >170% of positive control)”.
As for `O=C1[C@H]2[C@H]3C[C@H](O)CN3[C@]3(C(=O)Nc4c(Cl)cc(Cl)cc43)[C@H]2C(=O)N1c1cc(Cl)cc(Cl)c1` (single isomer, unassigned) [Example 2], the “Nauc @ 3 μM” value is “+++ (NAUC “+++” refers to an observed NAUC >170% of positive control)” and the “Nauc @ 10 μM” value is listed as “+++ (NAUC “+++” refers to an observed NAUC >170% of positive control)”.
For `O=C1C2C3CCCN3C3(C(=O)Nc4c(Cl)cc(Cl)cc43)C2C(=O)N1c1cc(Cl)cc(Cl)n1` (single isomer, unassigned) [Example 3, 5,7-Dichloro-2′-(4,6-dichloropyridin-2-yl)-3a′,6′,7′,8′,8a′,8b′-hexahydro-1′H-spiro[indoline-3,4′-pyrrolo[3,4-a]pyrrolizine]-1′,2,3′(2′H)-trione], the “Nauc @ 3 μM” value is reported as “+++ (NAUC “+++” refers to an observed NAUC >170% of positive control)” and the “Nauc @ 10 μM” value is on record as “+++ (NAUC “+++” refers to an observed NAUC >170% of positive control)”.
As for `COc1c(Cl)cc(N2C(=O)C3C4CC(C)(C)CN4C4(C(=O)Nc5c(Cl)cc(Cl)cc54)C3C2=O)cc1Cl` (single isomer, unassigned) [Example 4, 5,7-dichloro-2′-(3,5-dichloro-4-methoxyphenyl)-7′,7′-dimethyl-3a′,6′,7′,8′,8a′,8b′-hexahydro-1′H-spiro[indoline-3,4′-pyrrolo[3,4-a]pyrrolizine]-1′,2,3′(2′H)-trione], the “Nauc @ 3 μM” value is on record as “+++ (NAUC “+++” refers to an observed NAUC >170% of positive control)” and the “Nauc @ 10 μM” value was “++ (NAUC “++” refers to an observed NAUC 170-140% of positive control)”.
`[2H]C12C(=O)N(c3cc(Cl)cc(Cl)c3)C(=O)C1([2H])C1(C(=O)Nc3c(Cl)cc(Cl)cc31)N1C[C@@H](O)CC12` (single isomer, unassigned) [Example 5, (7′S)-5,7-Dichloro-2′-(3,5-dichlorophenyl)-7′-hydroxy-3a′,6′,7′,8′,8a′,8b′-hexahydro-1′H-spiro[indoline-3,4′-pyrrolo[3,4-a]pyrrolizine]-1′,2,3′(2′H)-trione-3a′,8b′-d2]: the “Nauc @ 3 μM” value was “+++ (NAUC “+++” refers to an observed NAUC >170% of positive control)” and the “Nauc @ 10 μM” value is listed as “+++ (NAUC “+++” refers to an observed NAUC >170% of positive control)”.
Turning to `COc1cc(Cl)cc(N2C(=O)C3C4C[C@H](F)CN4C4(C(=O)Nc5c(Cl)cc(Cl)cc54)C3C2=O)c1` (single isomer, unassigned) [Example 6, (7′S)-5,7-Dichloro-2′-(3-chloro-5-methoxyphenyl)-7′-fluoro-3a′,6′,7′,8′,8a′,8b′-hexahydro-1′H-spiro[indoline-3,4′-pyrrolo[3,4-a]pyrrolizine]-1′,2,3′(2′H)-trione], the “Nauc @ 3 μM” value is recorded as “+++ (NAUC “+++” refers to an observed NAUC >170% of positive control)” and the “Nauc @ 10 μM” value is recorded as “+++ (NAUC “+++” refers to an observed NAUC >170% of positive control)”.
Turning to `O=C1[C@H]2[C@@H](C(=O)N1c1cc(Cl)cc(Cl)c1)[C@]1(C(=O)Nc3c(Cl)cc(Cl)cc31)N1CCC[C@@H]21` (single isomer, unassigned) [Example 13], the “Nauc @ 3 μM” value is on record as “+++ (NAUC “+++” refers to an observed NAUC >170% of positive control)” and the “Nauc @ 10 μM” value is on record as “+++ (NAUC “+++” refers to an observed NAUC >170% of positive control)”.
Take `O=C1C2C3CCCN3C3(C(=O)Nc4c(Cl)cc(Cl)cc43)C2C(=O)N1c1cccc(C(F)(F)F)c1` (single isomer, unassigned) [Example 24]: the “Nauc @ 3 μM” value is on record as “+++ (NAUC “+++” refers to an observed NAUC >170% of positive control)” and the “Nauc @ 10 μM” value is reported as “+++ (NAUC “+++” refers to an observed NAUC >170% of positive control)”.
On to `O=C1C2C3C[C@H](O)CN3C3(C(=O)Nc4c(Cl)cc(Cl)cc43)C2C(=O)N1c1cc(Cl)cc(Cl)c1` (single isomer, unassigned) [Example 46], for which the “Nauc @ 3 μM” value was “++ (NAUC “++” refers to an observed NAUC 170-140% of positive control)” and the “Nauc @ 10 μM” value was “+ (NAUC “+” refers to an observed NAUC <140% of positive control)”.
Turning to `O=C1C2C3C[C@H](O)CN3C3(C(=O)Nc4ccc(C(F)(F)F)cc43)C2C(=O)N1c1cc(Cl)cc(Cl)c1` (single isomer, unassigned) [Example 50], the “Nauc @ 3 μM” value was “++ (NAUC “++” refers to an observed NAUC 170-140% of positive control)” and the “Nauc @ 10 μM” value was “+ (NAUC “+” refers to an observed NAUC <140% of positive control)”.
The like results for `O=C1C2C3C[C@H](O)CN3C3(C(=O)Nc4c(Br)cc(Br)cc43)C2C(=O)N1c1cc(Cl)cc(Cl)c1` (single isomer, unassigned) [Example 51] were, in that order, “+++ (NAUC “+++” refers to an observed NAUC >170% of positive control)” and “++ (NAUC “++” refers to an observed NAUC 170-140% of positive control)”.
Taken in the same sequence, the figures for `CC12C(=O)N(c3cc(Cl)cc(Cl)c3)C(=O)C1C1(C(=O)Nc3c(Cl)cc(Cl)cc31)N1CCCC12` (single isomer, unassigned) [Example 54] were “++ (NAUC “++” refers to an observed NAUC 170-140% of positive control)” and “+ (NAUC “+” refers to an observed NAUC <140% of positive control)”.
For the molecule `O=C1C2C3C[C@H](O)CN3C3(C(=O)Nc4c(Cl)cc(Cl)cc43)C2C(=O)N1c1cc(Br)cc(Br)c1` (single isomer, unassigned) [Example 56], the “Nauc @ 3 μM” value was “++ (NAUC “++” refers to an observed NAUC 170-140% of positive control)” and the “Nauc @ 10 μM” value was “+++ (NAUC “+++” refers to an observed NAUC >170% of positive control)”.
The like results for `O=C1C2C3C[C@H](NS(=O)(=O)c4ccccc4)CN3C3(C(=O)Nc4c(Cl)cc(Cl)cc43)C2C(=O)N1c1cc(Cl)cc(Cl)c1` (single isomer, unassigned) [Example 58] were, in that order, “++ (NAUC “++” refers to an observed NAUC 170-140% of positive control)” and “+++ (NAUC “+++” refers to an observed NAUC >170% of positive control)”.
Turning to `O=C1C2C3C[C@H](O)CN3C3(C(=O)Nc4ccc(C(F)(F)F)cc43)C2C(=O)N1c1cc(Cl)cc(Cl)c1` (single isomer, unassigned) [Example 61], the “Nauc @ 3 μM” value was “+++ (NAUC “+++” refers to an observed NAUC >170% of positive control)” and the “Nauc @ 10 μM” value is on record as “+++ (NAUC “+++” refers to an observed NAUC >170% of positive control)”.
As for `O=C1C2C3C[C@H](O)CN3C3(C(=O)Nc4c(Cl)cc(Cl)cc43)C2C(=O)N1c1cc(C(F)(F)F)cc(C(F)(F)F)c1` (single isomer, unassigned) [Example 62], the “Nauc @ 3 μM” value is recorded as “++ (NAUC “++” refers to an observed NAUC 170-140% of positive control)” and the “Nauc @ 10 μM” value is “++ (NAUC “++” refers to an observed NAUC 170-140% of positive control)”.
Turning to `O=C1C2C3CCCN3C3(C(=O)Nc4c(Cl)cc(Cl)cc43)C2C(=O)N1c1cc(Cl)cc(Cl)n1` (single isomer, unassigned) [Example 67], the “Nauc @ 3 μM” value is reported as “+++ (NAUC “+++” refers to an observed NAUC >170% of positive control)” and the “Nauc @ 10 μM” value is “+++ (NAUC “+++” refers to an observed NAUC >170% of positive control)”.
